{"source": "patent US20050215614A1", "about": "“Substituted indoles and their use as hcv inhibitors” (Rigel Pharmaceuticals, Inc., priority 2003, published 2005)"}
{"system": "HCV replicon", "assay": "HCV Replicon Assay (luciferase, 5-2 Luc replicon cells)", "format": "cell-based", "details": "5-2 Luc replicon cells (Huh7), 24-48 hours with compound, luciferase counts", "experimental": "Actively dividing 5-2 Luc replicon cells were seeded at the density of 5000-7500 cells/well in the volume of 90 μl/well into 96 well plate(s). The cells were then incubated at 37° C. and 5% CO2 for 24 hours. The 5-2 cells are replicon cells licensed from Ralf Bartenschlager (Germany) and have a self-replicating RNA molecule in the Huh7 cell; the RNA contains HCV non-structural proteins that make the self-replication possible.\nVarious concentrations of compounds (in the volume of 10 μl) were added into each well 24 hours after seeding the cells. The cells were incubated for another 24-48 hours before luciferase assay.\nAfter incubating the 5-2 Luc replicon cells with the compounds for 24-48 hours, media were aspirated from each well and Bright-Glo (Promega) luciferase assay reagents were added to each well according to the manufacturer′s manual. Briefly, the Bright-Glo reagent was diluted with equal volume of PBS and an aliquote (100 μl) was added to each well. After incubating the plate at room temperature for 5 minutes, luciferase counts were taken using a luminometer."}
{"compound": "Cc1cc2cc(NC(=O)C3CCC(=O)C3)ccc2n1C(=O)c1c(Cl)cccc1Cl", "note": "(stereo not drawn) [Compound 16a-14]", "Activity (concentration of inhibitory activity)": "a (“a” indicates inhibitory activity at a concentration of less than 10 micromolar)"}
{"compound": "COc1cccc(OC)c1C(=O)n1c(C)cc2cc(NC(=O)C3CC3)ccc21", "note": "[Compound 16b4, 5-Cyclopropanecarbonylamino-1-(2′,6′-dimethoxybenzoyl)-2-methylindole]", "Activity (concentration of inhibitory activity)": "a (“a” indicates inhibitory activity at a concentration of less than 10 micromolar)"}
{"compound": "COc1cccc(OC)c1C(=O)n1c(C)cc2cc(NC(=O)C3CCCC3)ccc21", "note": "[Compound 16b-1, 5-Cyclopentanecarbonylamino-1-(2′,6′-dimethoxybenzoyl)-2-methylindole]", "Activity (concentration of inhibitory activity)": "a (“a” indicates inhibitory activity at a concentration of less than 10 micromolar)"}
{"compound": "COc1cccc(OC)c1C(=O)n1c(C)cc2cc(NC(=O)C3CCCCC3)ccc21", "note": "[Compound 16b-2, 5-Cyclohexanecarbonylamino-1 (2′,6′-dimethoxybenzoyl)-2-methylindole]", "Activity (concentration of inhibitory activity)": "a (“a” indicates inhibitory activity at a concentration of less than 10 micromolar)"}
{"compound": "COc1cccc(OC)c1C(=O)n1c(C)cc2cc(NC(=O)C3CCC3)ccc21", "note": "[Compound 16b-3, 5-Cyclobutanecarbonylamino-1-(2′,6′-dimethoxybenzoyl)-2-methylindole]", "Activity (concentration of inhibitory activity)": "a (“a” indicates inhibitory activity at a concentration of less than 10 micromolar)"}
{"compound": "COc1cccc(OC)c1C(=O)n1c(C)cc2cc(NC(=O)c3cccnc3)ccc21", "note": "[Compound 16b-5, 1-(2′,6′-Dimethoxybenzoyl)-5-(3-pyridylcarbonyl)amino-2-methylindole]", "Activity (concentration of inhibitory activity)": "a (“a” indicates inhibitory activity at a concentration of less than 10 micromolar)"}
{"compound": "COc1cccc(OC)c1C(=O)n1c(C)cc2cc(NC(=O)C3CCC(=O)C3)ccc21", "note": "(stereo not drawn) [Compound 16b-6, 1-(2′,6′-Dimethoxybenzoyl)-5-(3-oxo-1-cyclopentanecarbonyl)amino-2-methylindole]", "Activity (concentration of inhibitory activity)": "a (“a” indicates inhibitory activity at a concentration of less than 10 micromolar)"}
{"compound": "Cc1cc2cc(NC(=O)C3CCCC3)ccc2n1C(=O)c1c(F)cccc1C(F)(F)F", "note": "[Compound 16c-1, 5-Cyclopentanecarbonylamino-1-(2′-fluoro-6′-trifluoromethylbenzoyl)-2-methylindole]", "Activity (concentration of inhibitory activity)": "a (“a” indicates inhibitory activity at a concentration of less than 10 micromolar)"}
{"compound": "Cc1cc2cc(NC(=O)C3CCCCC3)ccc2n1C(=O)c1c(F)cccc1C(F)(F)F", "note": "[Compound 16c-2, 5-Cyclohexanecarbonylamino-1-(2′-fluoro-6′-trifluoromethylbenzoyl)-2-methylindole]", "Activity (concentration of inhibitory activity)": "a (“a” indicates inhibitory activity at a concentration of less than 10 micromolar)"}
{"compound": "Cc1cc2cc(NC(=O)C3CCC3)ccc2n1C(=O)c1c(F)cccc1C(F)(F)F", "note": "[Compound 16c-3, 5-Cyclobutanecarbonylamino-1-(2′-fluoro-6′-trifluoromethylbenzoyl)-2-methylindole]", "Activity (concentration of inhibitory activity)": "a (“a” indicates inhibitory activity at a concentration of less than 10 micromolar)"}
{"compound": "Cc1cc2cc(NC(=O)C3CC3)ccc2n1C(=O)c1c(F)cccc1C(F)(F)F", "note": "[Compound 16c-4, 5-Cyclopropanecarbonylamino-1-(2′fluoro-6′-trifluoromethylbenzoyl)-2-methylindole]", "Activity (concentration of inhibitory activity)": "a (“a” indicates inhibitory activity at a concentration of less than 10 micromolar)"}
{"compound": "Cc1cc2cc(NC(=O)C3CCC(=O)C3)ccc2n1C(=O)c1c(F)cccc1C(F)(F)F", "note": "(stereo not drawn) [Compound 16c-5, 1-(2′-Fluoro-6′-trifluoromethylbenzoyl)-5-(3-oxo-1-cyclopentanecarbonyl)amino-2-methylindole]", "Activity (concentration of inhibitory activity)": "a (“a” indicates inhibitory activity at a concentration of less than 10 micromolar)"}
